Data reported in ChEMBL document CHEMBL1268904, “Potent and selective HIV-1 ribonuclease H inhibitors based on a 1-hydroxy-1,8-naphthyridin-2(1H)-one scaffold” (Bioorg Med Chem Lett, 2010).

What was measured:
[1] = Cytotoxicity against human HeLaP4-2 cells by alamar blue assay; type: cell-based
[2] = molecular target: Human immunodeficiency virus type 1 integrase (Human immunodeficiency virus 1, UniProt Q7ZJM1); assay: Inhibition of HIV1 integrase strand transfer activity
[3] = Therapeutic index, ratio of CC50 for human HeLaP4-2 cells to IC50 for HIV1 HXB2 infected in human HeLaP4-2 cells; type: cell-based; details: HeLaP4-2 cells infected with HIV1 HXB2, read-out: Ratio CC50/IC50
[4] = molecular target: Human immunodeficiency virus type 1 reverse transcriptase (Human immunodeficiency virus 1, UniProt Q72547); assay: Inhibition of wild type HIV1 reverse transcriptase RNasH activity
[5] = Inhibition of HIV1 reverse transcriptase D443N mutant RNA-dependent DNA plymerase activity; design: species or system Human immunodeficiency virus 1
[6] = system: Human immunodeficiency virus 1; assay: Antiviral activity against HIV1 HXB2 infected in human HeLaP4-2 cells assessed as inhibition of single-cycle viral replication; type: functional, organism-based; details: Human immunodeficiency virus 1, HXB2, HeLaP4-2
[7] = Cytotoxicity against human HeLaP4-2 cells up to 50 uM by alamar blue assay; type: cell-based
[8] = Lipophilicity, log P of the compound; type: physicochemical; details: octanol/water
[9] = system: Human immunodeficiency virus 1; assay: Selectivity ratio of IC50 for HIV1 integrase Q148R mutant strand transfer activity to IC50 for HIV1 integrase strand transfer activity
[10] = system: Human immunodeficiency virus 1; assay: Selectivity ratio of IC50 for HIV1 integrase N155H mutant strand transfer activity to IC50 for HIV1 integrase strand transfer activity
[11] = system: Human immunodeficiency virus 1; assay: Antiviral activity against HIV1 3B infected in human MT4 cells assessed as decrease in viral p24 antigen level after 14 to 21 days; type: functional; details: Human immunodeficiency virus 1, 3B
MT4 = assay: Cytotoxicity against human MT4 cells at 1.5 uM; type: cell-based; details: mt4, 1.5 µM
[12] = system: Human immunodeficiency virus 1; assay: Selectivity ratio of IC50 for HIV1 integrase Y143R mutant strand transfer activity to IC50 for HIV1 integrase strand transfer activity
[13] = system: Human immunodeficiency virus 1; assay: Selectivity ratio of IC50 for HIV1 reverse transcriptase D443N mutant RNA-dependent DNA plymerase activity to IC50 for wild type HIV1 reverse transcriptase RNasH activity
[14] = system: Human immunodeficiency virus 1; assay: Selectivity ratio of IC50 for HIV1 integrase strand transfer activity to IC50 for wild type HIV1 reverse transcriptase RNasH activity

Human immunodeficiency virus type 1 integrase, sequence (Q7ZJM1 whole entry): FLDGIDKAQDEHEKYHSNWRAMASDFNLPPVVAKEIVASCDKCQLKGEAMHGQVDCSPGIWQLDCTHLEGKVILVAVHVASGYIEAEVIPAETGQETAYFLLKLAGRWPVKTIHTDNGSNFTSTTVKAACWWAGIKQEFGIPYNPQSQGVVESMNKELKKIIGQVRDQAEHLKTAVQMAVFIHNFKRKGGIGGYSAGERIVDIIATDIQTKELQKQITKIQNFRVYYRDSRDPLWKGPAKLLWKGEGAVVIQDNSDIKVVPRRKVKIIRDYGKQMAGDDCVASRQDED

Row | Structure (SMILES) | CC50 [1] | IC50 [2] | selectivity ratio [3] | IC50 [4] | IC50 [5] | IC50 [6] | Activity [7] | logP [8] | Ratio IC50 [9] | Ratio IC50 [10] | IC95 [11] | Activity (MT4) | Ratio IC50 [12] | Ratio IC50 [13] | Ratio IC50 [14]
1 | NCc1ccc(-c2cccc(-c3cc(=O)n(O)c4ncccc34)c2)cc1 | 2.3 µM | 7.8 µM | 3 | 0.13 µM | 16 µM | 0.62 µM | – | – | – | – | – | – | – | – | –
2 | NCc1ccccc1-c1cccc(-c2cc(=O)n(O)c3ncccc23)c1 | 9.1 µM | 18 µM | 3 | 0.67 µM | 36 µM | 2.8 µM | – | – | – | – | – | – | – | – | –
3 | CCOC(=O)c1c(O)c2cccnc2n(O)c1=O | – | – | – | 0.11 µM | – | 2.5 µM | Non-toxic | 2.2 | – | – | – | – | – | – | –
4 | O=c1cc(-c2cccc(-c3ccccc3)c2)c2cccnc2n1O | > 50 µM | 2.4 µM | – | 0.64 µM | 9 µM | 34 µM | – | – | – | – | – | – | – | – | –
5 | NCc1ccc(-c2cccc(Cc3cc(=O)n(O)c4ncccc34)c2)cc1 | 4.6 µM | 8.1 µM | 11 | 0.1 µM | 11 µM | 0.43 µM | – | – | – | – | – | – | – | – | –
6 | NCc1cccc(-c2cccc(-c3cc(=O)n(O)c4ncccc34)c2)c1 | 4.9 µM | 9.1 µM | 3 | 0.15 µM | 5.1 µM | 0.85 µM | – | – | – | – | – | – | – | – | –
7 | NCc1ccc(-c2ccc(Cc3cc(=O)n(O)c4ncccc34)cc2)cc1 | 3.3 µM | 24 µM | 17 | 0.045 µM | 13 µM | 0.19 µM | – | 0.15 | 1.9 | 1.1 | 0.92 µM | Non-toxic | 0.84 | – | –
8 | O=c1ccc2cccnc2n1O | 20 µM | 15 µM | 4 | 1.4 µM | > 50 µM | 4.5 µM | – | – | – | – | – | – | – | 30 | 10
